Data reported in patent publication US20210227868A1, “Formula with specific beta-lactoglobulin peptides” (N.V. Nutricia, priority 2018, published 2021).

Tests used:
Assay in all cases: T-cell proliferation assay (stimulation index)
Format in all cases: cell-based, human
[1] = system: cow's milk-specific T-cell lines (TCLs); conditions: TCLs of three cow's milk allergic donors; SI>=2 positive
Protocol: (§1) Synthetic peptides were obtained from JPT technologies. Only peptides containing at least 9 AAs were taken into account, as this is the minimal size for binding to MHC class II molecules and subsequent T-cell recognition (Holland et al, Front Immunol 2013 Jul 1; 4:172.) Synthetic peptides (JPT technologies) identical to the peptides identified in all batches of the HP of example 1 were dissolved in dimethylsulfoxide (Sigma Aldrich) at a concentration of 5.3 mM. The peptides were tested on cow's milk-specific T-cell lines (TCLs) from three different donors. The peptides were tested on cow's milk protein-specific T-cell lines (TCLs) from three infant donors, diagnosed with cow's milk protein allergy. […] Proliferation was determined as described previously (Ruiter et al, Clin Exp Allergy 2006, 36(3):303-310). Stimulation indexes (Sls, ratio between proliferation of allergen/peptide-stimulated and non-stimulated T cells) were calculated and a SI≥2 was considered positive.
(§2) To confirm that the peptides identified in HP were recognized by T cells, synthetic peptides identical to these identified peptides were tested on cow's milk-specific human TCLs. As there was a considered overlap between the identified peptides, five peptides were tested (Table 7) that were identified in all batches and differed with more than 9A from each other. All tested peptides were able to induce proliferation (FIG. 2). […] This was also seen with the in silico prediction data (data not shown). […] As peptide LIV . . . […] SLL (AA #1-32) did, the region containing AA #28-32 (DISLL) was essential for the response of TCL A. Unexpectedly, TCL C recognized peptide LIV . . . AAS (AA #1-27), while the longer peptide containing the same sequence with 5 additional AAs, LIV . . .

[2] = system: TCL C; conditions: SI>=2 positive
Protocol: as §1, §2

[3] = system: TCL A; conditions: SI>=2 positive
Protocol: as §1, §2

Sequence | T-cell proliferation / reactivity [1] | T-cell proliferation [2] | T-cell proliferation [3]
TMKGLDIQKVAGTWYSLAMAASDISLLDAQ (beta-lactoglobulin peptide fragment) [SEQ ID NO: 4] | reactivity of every cell line was covered |  | 
LIVTQTMKGLDIQKVAGTWYSLAMAASDISLL (beta-lactoglobulin peptide fragment) [SEQ ID NO: 11] |  | not able to induce a proliferative response | did
LIVTQTMKGLDIQKVAGTWYSLAMAAS (beta-lactoglobulin peptide fragment) [SEQ ID NO: 9] |  | recognized | not able to induce proliferation
